Patent US20140157443A1, “METHODS AND COMPOSITIONS FOR DETECTING AND MODULATING A NOVEL MTOR COMPLEX” (ST. JUDE CHILDREN'S RESEARCH HOSPITAL, priority 2011, published 2014)
“Also recorded” adds a separate entry of the source.

Tests used:
Karpas-299 cells = assay: mTOR inhibition: proliferation of Karpas-299 cells over three population doublings; assay type: cell-based, human; settings: 0.1 to 10,000 ng/ml
Procedure: FIG. 5A provides a graph presenting cell density as a percent control of Karpas-299 cells. […] Cell densities were plotted as the percentage of cells treated with vehicle. […] Cell densities were plotted as the percentage of cells treated with vehicle.
(§1) Cells were plated in drug containing growth medium and followed for three population doublings.

[1] = system: mTOR signaling in TEL2-expressing Arf−/− mouse pre-B cells; assay: Immunoblots of mTOR target phosphorylation, KI-67 and LC3B in AZD-8055-treated TEL2-expressing pre-B cells; assay type: cell-based
Procedure: (§2) FIG. 5A provides a graph presenting cell density as a percent control of Karpas-299 cells. Logarithmically growing Karpas-299 cells were treated for three population doublings with increasing amounts (0.1, 0.3, 1, 3, 10, 30, 100, 300, 1000, 3000, 10,000 ng/ml) of Rapamycin, AZD-8055 or OSI-27. Cell densities were plotted as the percentage of cells treated with vehicle. FIG. 5B provides a graph presenting cell density as a percent control of mouse pre-B cells transduced with MSCV-IRES-GFP (vector) or MSCV-TEL2-IRES-GFP (TEL2) and treated with AZD-8055 or Rapamycin. Cell densities were plotted as the percentage of cells treated with vehicle. FIG. 5C provides m-TOR IP/immunoblots of lysates of the Rapamycin-treated Karpas-299 cells probed for the presence of Rictor, mSIN1, mLST8 and TEL2. FIG. 5D provides immunoblots of the same Rapamycin-treated fractions of FIG. 5C probed for the presence of p-mTOR^Ser2448, p-AKT^Ser473, p-AKT^Thr308, p-P70S6K^Thr389, p-S6^Ser235/236, p-4E-BP1^Thr37/46 and for the autophagosome marker LC3B I/II.
At 100 ng/ml AZD-8055, the autophagy salvage pathway was activated as detected by the change in the relative amounts of the LC3BI/II proteins.
(§3) For western blot analysis, cells were lysed in 1× lysis buffer (Cell Signaling Technologies). For co-IP experiments, cells were lysed in CHAPS lysis buffer and xenografts in 1× cell signaling lysis buffer. Co-IP was performed with 2 μg antibody whilst rotating at 4° C.

[2] = system: TEL2-expressing primary Arf−/− mouse pre-B cells; assay: mTOR inhibition: proliferation of TEL2-expressing pre-B cells; assay type: cell-based
Procedure: as §2, with “FIG. 5C provides m-TOR IP/immunoblots of lysates of the Rapamycin-treated Karpas-299 cells probed for the presence of Rictor, mSIN1, mLST8 and TEL2.” left out
as §1

[3] = system: mTOR signaling in Karpas-299 cells; assay: Immunoblots of mTOR target phosphorylation, Ki-67 and LC3B in treated Karpas-299 cells; assay type: cell-based, human
Procedure: as §2, with “FIG. 5C provides m-TOR IP/immunoblots of lysates of the Rapamycin-treated Karpas-299 cells probed for the presence of Rictor, mSIN1, mLST8 and TEL2.” left out
as §3

mTORC3 = molecular target: T1, mTORC3 (Homo sapiens, UniProt P42345); assay: IP-kinase assay, TEL2 IP (mTORC3 alone) with recombinant 4E-BP1; assay type: biochemical; settings: Karpas-299 TEL2 IP, recombinant 4E-BP1, γ32P-ATP; FKBP12/Rapamycin 37 μg/ml/20 μM; OSI-27 10 μM
T1 construct: endogenous TEL2-expressing Karpas-299 cell lysates immunoprecipitated with mTOR (mTOR IP) or TEL2 (TEL2-IP) antibodies; endogenous in cells; host or cells: Karpas-299
Procedure: (§4) IgG indicates the immunoprecipitation with non-relevant IgG.
(§5) To determine the relative amounts of mTORC 1, 2 and 3, whole cell lysates of Karpas-299 cells were immunoprecipitated with non-relevant IgG, anti-mTOR, anti-TEL2, anti-Raptor, or anti-Rictor antibodies and the IPs were used for western blotting and in vitro kinase assays. […] For in vitro kinase assays, the IPs were incubated with recombinant 4E-BP1 or AKT in the presence of ATP.
(§6) Captured antibody-protein complexes were incubated with recombinant 4E-BP1 (Abcam) or AKT/PKB (Millipore) in the presence of (γ^32P-) ATP.

mTOR = molecular target: T2, mTOR (Homo sapiens, UniProt P42345); assay: IP-kinase assay, mTOR IP (mTORC1+mTORC2+mTORC3) with recombinant 4E-BP1; assay type: biochemical; settings: Karpas-299 mTOR IP, recombinant 4E-BP1, γ32P-ATP; FKBP12/Rapamycin 37 μg/ml/20 μM; OSI-27 10 μM
T2 construct: endogenous TEL2-expressing Karpas-299 cell lysates immunoprecipitated with mTOR (mTOR IP) or TEL2 (TEL2-IP) antibodies; endogenous in cells; host or cells: Karpas-299
Procedure: as §4, §5, §6

[4] = system: vector-transduced Arf−/− pre-B cells; assay: mTOR inhibition: proliferation of vector-transduced pre-B cells; assay type: cell-based, mouse
Procedure: as §2
To determine if mTORC3 is also insensitive to Rapamycin inhibition in vivo, Karpas-299 cells were treated with increasing amounts of drug for three population doublings. […] This was deduced from the steady relative intensities of LC3BI/II proteins at all Rapamycin concentrations (FIG. 5D). […]

SIN1 (human cell lines) = molecular target: T3, SIN1 (human cell lines) (human, UniProt Q9BPZ7 2-522, limits assumed); assay: TEL2 IP / western blot, whole cell lysates of Karpas-299, K562 and OS-17 cells (FIG. 2B)
T3 construct: mTORC2 component; also called mSIN1
T3 sequence (Q9BPZ7 2-522 limits assumed): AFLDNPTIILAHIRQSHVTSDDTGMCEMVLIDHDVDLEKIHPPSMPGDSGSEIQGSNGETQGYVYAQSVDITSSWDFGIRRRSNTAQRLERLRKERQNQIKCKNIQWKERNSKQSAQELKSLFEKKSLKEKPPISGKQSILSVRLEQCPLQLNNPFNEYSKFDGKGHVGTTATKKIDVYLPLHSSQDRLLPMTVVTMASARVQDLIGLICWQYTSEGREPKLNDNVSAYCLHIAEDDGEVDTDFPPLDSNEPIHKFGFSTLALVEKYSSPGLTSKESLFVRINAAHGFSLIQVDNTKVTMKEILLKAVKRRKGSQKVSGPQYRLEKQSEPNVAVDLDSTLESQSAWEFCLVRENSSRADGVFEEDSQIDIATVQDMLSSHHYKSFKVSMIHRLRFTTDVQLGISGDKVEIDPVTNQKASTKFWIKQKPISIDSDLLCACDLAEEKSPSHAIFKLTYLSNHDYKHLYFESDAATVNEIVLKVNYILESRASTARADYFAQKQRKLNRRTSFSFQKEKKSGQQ
Procedure: as §3

[5] = molecular target: T4, Raptor (human cell lines) (human, UniProt Q8N122 1-1335); assay: as above
T4 construct: mTORC1 component
T4 sequence (Q8N122 whole entry): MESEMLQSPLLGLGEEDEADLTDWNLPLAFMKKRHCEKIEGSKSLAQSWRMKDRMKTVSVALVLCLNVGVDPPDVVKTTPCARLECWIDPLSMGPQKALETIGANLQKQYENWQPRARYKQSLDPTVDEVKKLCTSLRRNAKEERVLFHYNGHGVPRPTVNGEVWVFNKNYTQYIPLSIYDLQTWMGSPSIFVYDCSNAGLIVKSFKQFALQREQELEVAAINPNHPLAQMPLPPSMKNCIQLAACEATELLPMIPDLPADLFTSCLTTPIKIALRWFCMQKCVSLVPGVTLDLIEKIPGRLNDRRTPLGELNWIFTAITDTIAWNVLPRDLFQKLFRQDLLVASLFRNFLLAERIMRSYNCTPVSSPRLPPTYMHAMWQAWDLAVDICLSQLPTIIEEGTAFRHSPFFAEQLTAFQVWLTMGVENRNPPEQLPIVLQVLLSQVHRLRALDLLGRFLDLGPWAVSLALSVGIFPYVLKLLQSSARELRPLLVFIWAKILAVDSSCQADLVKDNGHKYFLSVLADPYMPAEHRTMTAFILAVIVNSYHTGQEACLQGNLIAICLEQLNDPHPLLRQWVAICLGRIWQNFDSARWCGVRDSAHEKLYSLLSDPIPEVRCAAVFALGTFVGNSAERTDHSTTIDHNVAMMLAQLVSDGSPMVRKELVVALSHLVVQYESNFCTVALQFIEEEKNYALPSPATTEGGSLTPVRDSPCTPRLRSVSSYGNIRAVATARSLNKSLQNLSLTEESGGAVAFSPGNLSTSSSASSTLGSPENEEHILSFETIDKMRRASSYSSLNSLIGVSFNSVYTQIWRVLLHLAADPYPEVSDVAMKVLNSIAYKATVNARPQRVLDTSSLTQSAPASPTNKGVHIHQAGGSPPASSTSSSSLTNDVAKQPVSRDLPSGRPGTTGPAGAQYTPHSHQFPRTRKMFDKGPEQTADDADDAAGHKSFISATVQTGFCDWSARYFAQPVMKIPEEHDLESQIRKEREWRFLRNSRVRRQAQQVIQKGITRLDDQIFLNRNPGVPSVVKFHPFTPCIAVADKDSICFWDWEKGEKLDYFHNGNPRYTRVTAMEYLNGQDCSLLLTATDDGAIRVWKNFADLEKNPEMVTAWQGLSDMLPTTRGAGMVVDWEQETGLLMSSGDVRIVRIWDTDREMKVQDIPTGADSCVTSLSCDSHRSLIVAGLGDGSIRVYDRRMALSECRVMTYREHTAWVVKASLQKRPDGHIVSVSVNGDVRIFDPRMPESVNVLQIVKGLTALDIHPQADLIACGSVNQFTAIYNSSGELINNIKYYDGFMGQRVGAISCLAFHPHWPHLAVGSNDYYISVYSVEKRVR
Procedure: as §3

[6] = molecular target: T5, Rictor (human cell lines) (human, UniProt Q6R327 1-1708); assay: TEL2 IP / western blot of cytoplasmic, membrane and nuclear fractions of Karpas-299 cells (FIG. 3A)
T5 construct: mTORC2 component
T5 sequence (Q6R327 whole entry): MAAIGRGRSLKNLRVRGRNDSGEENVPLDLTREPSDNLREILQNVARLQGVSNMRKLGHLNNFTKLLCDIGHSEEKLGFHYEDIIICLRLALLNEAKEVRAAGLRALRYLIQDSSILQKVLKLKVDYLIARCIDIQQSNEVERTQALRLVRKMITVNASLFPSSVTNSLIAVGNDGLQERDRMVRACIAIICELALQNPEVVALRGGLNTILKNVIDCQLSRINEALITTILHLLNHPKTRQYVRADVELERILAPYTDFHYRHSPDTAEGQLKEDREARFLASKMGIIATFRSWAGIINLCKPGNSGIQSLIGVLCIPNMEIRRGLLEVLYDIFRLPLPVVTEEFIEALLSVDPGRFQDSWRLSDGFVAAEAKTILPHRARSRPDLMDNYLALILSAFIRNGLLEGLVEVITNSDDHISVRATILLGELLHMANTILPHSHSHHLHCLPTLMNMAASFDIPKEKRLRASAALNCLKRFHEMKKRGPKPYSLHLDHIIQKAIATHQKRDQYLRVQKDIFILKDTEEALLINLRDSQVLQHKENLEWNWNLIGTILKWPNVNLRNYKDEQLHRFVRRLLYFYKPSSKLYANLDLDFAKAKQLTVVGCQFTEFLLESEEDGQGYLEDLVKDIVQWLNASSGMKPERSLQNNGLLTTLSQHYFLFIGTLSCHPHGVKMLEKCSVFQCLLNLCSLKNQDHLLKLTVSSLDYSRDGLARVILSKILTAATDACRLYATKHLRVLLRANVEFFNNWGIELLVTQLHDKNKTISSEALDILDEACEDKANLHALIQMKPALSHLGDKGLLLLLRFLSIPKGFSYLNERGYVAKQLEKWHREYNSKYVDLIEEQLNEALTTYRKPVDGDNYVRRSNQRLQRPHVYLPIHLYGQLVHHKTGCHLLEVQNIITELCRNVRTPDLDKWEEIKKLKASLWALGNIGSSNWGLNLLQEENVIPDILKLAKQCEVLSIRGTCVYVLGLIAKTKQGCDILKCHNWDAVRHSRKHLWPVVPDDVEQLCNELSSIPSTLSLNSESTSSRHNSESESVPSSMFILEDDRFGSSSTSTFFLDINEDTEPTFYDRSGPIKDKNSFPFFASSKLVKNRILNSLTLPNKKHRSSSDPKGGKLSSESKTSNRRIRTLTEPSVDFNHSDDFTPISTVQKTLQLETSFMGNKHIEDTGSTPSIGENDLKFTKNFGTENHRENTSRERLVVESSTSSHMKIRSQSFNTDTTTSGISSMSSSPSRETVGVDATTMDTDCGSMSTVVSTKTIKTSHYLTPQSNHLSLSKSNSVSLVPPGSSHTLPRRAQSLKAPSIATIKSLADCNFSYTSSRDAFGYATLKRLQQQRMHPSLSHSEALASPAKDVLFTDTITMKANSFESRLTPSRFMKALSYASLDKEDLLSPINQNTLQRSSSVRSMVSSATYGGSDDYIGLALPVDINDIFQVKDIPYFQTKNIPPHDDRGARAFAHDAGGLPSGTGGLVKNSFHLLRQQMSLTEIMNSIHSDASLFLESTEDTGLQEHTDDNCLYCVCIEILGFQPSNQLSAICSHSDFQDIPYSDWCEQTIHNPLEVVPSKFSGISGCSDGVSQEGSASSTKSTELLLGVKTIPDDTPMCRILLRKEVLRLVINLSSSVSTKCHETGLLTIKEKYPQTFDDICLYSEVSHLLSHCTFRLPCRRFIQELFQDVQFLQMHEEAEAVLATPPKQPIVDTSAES
Procedure: Nuclear, cytoplasmic and membrane fractions of Karpas-299 cells were subjected to IP-Western blotting to determine the cellular location of mTORC3.
as §3

[7] = molecular target: T6, RUVBL2 (bacterially-expressed, purified recombinant) (UniProt Q9Y230 1-463, limits assumed); assay: purified proteins co-incubated for 8 or 24 hours, TEL2 IP, western blot for RUVBL2 (FIG. 2C)
T6 construct: Used as a specificity control, a protein not part of mTORC3
T6 sequence (Q9Y230 whole entry): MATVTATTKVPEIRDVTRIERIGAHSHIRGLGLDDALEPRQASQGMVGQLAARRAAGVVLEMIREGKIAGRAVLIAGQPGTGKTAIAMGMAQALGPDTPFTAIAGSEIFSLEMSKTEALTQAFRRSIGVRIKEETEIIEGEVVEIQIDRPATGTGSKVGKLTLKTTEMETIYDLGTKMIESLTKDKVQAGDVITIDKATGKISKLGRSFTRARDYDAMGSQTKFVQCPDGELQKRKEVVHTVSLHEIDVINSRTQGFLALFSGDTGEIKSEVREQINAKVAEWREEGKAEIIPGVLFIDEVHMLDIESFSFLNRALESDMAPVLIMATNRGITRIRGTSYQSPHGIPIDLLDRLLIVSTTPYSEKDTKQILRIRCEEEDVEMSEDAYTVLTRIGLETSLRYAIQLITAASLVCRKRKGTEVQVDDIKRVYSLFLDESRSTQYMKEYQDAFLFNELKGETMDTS

[8] = molecular target: Rictor of mouse Arf-/- pre-B cells (mouse, UniProt Q6QI06 1-1708); assay: TEL2 IP / western blot, whole cell lysates of mouse Arf-/- pre-B cells expressing TEL2 (FIG. 2A)
Procedure: as §3

[9] = molecular target: T7, SIN1 of mouse Arf-/- pre-B cells (mouse, UniProt Q8BKH7 2-522, limits assumed); assay: as above
T7 construct: also called mSIN1
T7 sequence (Q8BKH7 2-522 limits assumed): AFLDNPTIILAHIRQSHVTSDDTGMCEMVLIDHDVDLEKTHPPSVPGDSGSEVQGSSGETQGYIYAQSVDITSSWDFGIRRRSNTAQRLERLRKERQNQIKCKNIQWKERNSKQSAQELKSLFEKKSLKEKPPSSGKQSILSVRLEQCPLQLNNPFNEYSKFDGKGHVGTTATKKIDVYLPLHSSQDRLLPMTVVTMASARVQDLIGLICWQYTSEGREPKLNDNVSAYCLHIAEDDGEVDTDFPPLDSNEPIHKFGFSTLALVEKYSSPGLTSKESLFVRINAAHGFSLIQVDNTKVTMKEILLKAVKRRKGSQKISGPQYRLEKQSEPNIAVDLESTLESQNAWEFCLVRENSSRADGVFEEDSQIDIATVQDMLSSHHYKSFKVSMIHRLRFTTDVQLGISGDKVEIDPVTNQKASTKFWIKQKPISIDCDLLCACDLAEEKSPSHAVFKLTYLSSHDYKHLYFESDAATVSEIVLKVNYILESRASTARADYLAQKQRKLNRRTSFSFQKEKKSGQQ
Procedure: as §3

Question: How did the “Proliferation of Karpas-299 cells” value (Karpas-299 cells) turn out when `COc1ccc(-c2ccc3c(N4CCOC[C@@H]4C)nc(N4CCOC[C@@H]4C)nc3n2)cc1CO` [AZD-8055] was run?
Answer: completely inhibited proliferation

Question: What about the Autophagy salvage pathway ([1]; TEL2-expressing pre-B cells) of the same molecule?
Answer: did not induce the autophagy salvage pathway

Question: What about the Cell survival ([1]; TEL2-expressing pre-B cells after complete loss of mTOR signaling) of the same molecule?
Answer: died rapidly

Question: And the “p-Akt Ser473, p-S6 Ser235/236, p-4E-BP1 Thr37/46 phosphorylation and KI-67 antigen” value ([1]; TEL2-expressing pre-B cells, >100 ng/ml)?
Answer: loss of p-Akt^Ser473, p-S6^Ser235/236, p-4E-BP1^Thr37/46 phosphorylation and loss of the KI-67 antigen

Question: And the “Drug concentration that completely inhibited proliferation” value [2]?
Answer: > 100 ng/mL

Question: And the “Concentration giving complete loss of 4E-BP1 Thr37/46, P70S6K Thr389 and AKT Ser473 phosphorylation, coinciding with loss of cell proliferation” value ([3]; Karpas-299)?
Answer: 100 ng/mL

Question: What about the “Phosphorylation of AKT Thr308” value ([3]; Karpas-299) of the same molecule?
Answer: remained stable

Question: And the “Autophagy salvage pathway (relative amounts of LC3BI/II)” value ([3]; Karpas-299, 100 ng/ml)?
Answer: activated

Question: What about the “Ki-67 antigen (transition to G0 phase)” value ([3]; Karpas-299, 100 ng/ml) of the same molecule?
Answer: loss of the Ki-67 antigen

Question: What about the “mTORC3 signaling / kinase activity in cultured cells” value [3] of the same molecule?
Answer: sensitive; also recorded: fully inhibited

Question: How did the “Proliferation of Karpas-299 cells” value (Karpas-299 cells) turn out when `COc1cccc2cc(-c3nc([C@H]4CC[C@H](C(=O)O)CC4)n4ncnc(N)c34)[nH]c12` [OSI-27] was run?
Answer: completely inhibited proliferation

Question: What about the “4E-BP1 phosphorylation (kinase activity) by TEL2 IP” value (mTORC3) of the same molecule?
Answer: reduced 4E-BP1 phosphorylation to levels comparable with IPs using control IgG

Question: And the “4E-BP1 phosphorylation (kinase activity) by mTOR IP” value (mTOR)?
Answer: reduced 4E-BP1 phosphorylation to levels comparable with IPs using control IgG

Question: And the “mTORC3 signaling / kinase activity in cultured cells” value [3]?
Answer: sensitive; also recorded: fully inhibited

Question: Which results are given for `CO[C@H]1C[C@@H]2CC[C@@H](C)[C@@](O)(O2)C(=O)C(=O)N2CCCC[C@H]2C(=O)O[C@H]([C@H](C)C[C@@H]2CC[C@@H](O)[C@H](OC)C2)CC(=O)[C@H](C)/C=C(\C)[C@@H](O)[C@@H](OC)C(=O)[C@H](C)C[C@H](C)/C=C/C=C/C=C/1C` [Rapamycin]?
Answer: Drug concentration at which cells stopped proliferating [4]: > 0.3 ng/mL; Concentration causing marked reduction of p-AKT Ser473 phosphorylation ([3]; Karpas-299): > 0.3 ng/mL

B1: TEL2 (translocation Ets leukemia 2 / Ets variant gene 7) (other)
chain: MQEGELAISPISPVAAMPPLGTHVQARCEAQINLLGEGGICKLPGRLRIQPALWSREDVLHWLRWAEQEYSLPCTAEHGFEMNGRALCILTKDDFRHRAPSSGDVLYELLQYIKTQRRALVCGPFFGGIFRLKTPTQHSPVPPEEVTGPSQMDTRRGHLLQPPDPGLTSNFGHLDDPGLARWTPGKEESLNLCHCAELGCRTQGVCSFPAMPQAPIDGRIADCRLLWDYVYQLLLDTRYEPYIKWEDKDAKIFRVVDPNGLARLWGNHKNRVNMTYEKMSRALRHYYKLNIIKKEPGQKLLFRFLKTPGKMVQDKHSHLEPLESQEQDRIEFKDKRPEISP
notes: Endogenous in the human cell lines and xenografts; Exogenous (MSCV-TEL2-IRES-GFP) in mouse Arf-/- pre-B cells; Purified from transfected HEK 293T cells for the in vitro association; also called TEL2/ETV7; ETV7
Question: Does B1 bind (SIN1 (human cell lines))?
Answer: no binding

Question: Does B1 bind [5]?
Answer: no binding

Question: Does B1 bind [6]?
Answer: no binding

Question: Does B1 bind [7]?
Answer: no binding

Question: Does B1 bind [8]?
Answer: no binding

Question: Does B1 bind [9]?
Answer: no binding
